From ChEMBL document CHEMBL1201862, “PubChem BioAssay data set” (2004)
Active and inactive are the calls of the source.

Legend:
[1] = T. cruzi growth inhibition in host cells, dose response, cell-based, plate reader, dry powder, set 2 (AID 652275); format: functional
[2] = P. falciparum Dd2 growth inhibitors, dose response, SYBR Green, cherry-picked samples (AID 1159567); format: functional, cell-based
[3] = target: T1, Oxysterols receptor LXR-beta (Homo sapiens, UniProt P55055); format: functional, cell-based;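 also: agonist activity at LXR measured by a cell-based luminescence readout across a dose range, run as a counterscreen for daf-12 agonists; HEK293 cells with Gal4-LXR fusion and GAL4-driven luciferase reporter; potency for activation of Gal4-LXR reporter so compounds are agonists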
T1 sequence (P55055 whole entry): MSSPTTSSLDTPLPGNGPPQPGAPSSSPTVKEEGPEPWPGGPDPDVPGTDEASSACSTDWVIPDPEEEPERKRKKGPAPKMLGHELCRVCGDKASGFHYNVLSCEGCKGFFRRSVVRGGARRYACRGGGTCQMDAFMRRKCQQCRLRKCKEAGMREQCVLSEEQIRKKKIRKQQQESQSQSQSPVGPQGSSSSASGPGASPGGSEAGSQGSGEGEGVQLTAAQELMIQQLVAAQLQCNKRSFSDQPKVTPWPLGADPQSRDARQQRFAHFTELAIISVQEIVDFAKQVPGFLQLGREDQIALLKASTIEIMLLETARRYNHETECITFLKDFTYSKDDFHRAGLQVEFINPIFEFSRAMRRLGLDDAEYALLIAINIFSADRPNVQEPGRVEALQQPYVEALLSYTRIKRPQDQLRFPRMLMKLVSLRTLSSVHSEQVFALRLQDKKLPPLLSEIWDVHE

[4] = growth inhibition of PfATP4-mutant resistant parasites – NITD609-resistant line, SYBR Green, dry powder, dose response (AID 1159571); format: functional, cell-based;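 also: parasites synchronized at ring stage by sorbitol before testing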
[5] = toxicity to human HepG2 hepatoma cells – cell-based, plate reader, dry powder samples, cytotoxicity control, dose response (AID 1159569); format: functional;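 also: inhibitor potency with signal falling toward the positive control level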
[6] = Dd2 malaria parasite growth inhibition potency – SYBR Green, dry powder samples, dose response (AID 1159566); format: functional, cell-based;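 also: potency for growth inhibition with lower SYBR green DNA signal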
[7] = growth inhibition of yeast DHODH-expressing 3D7 parasites – SYBR Green, dry powder samples, dose response (AID 1159570); format: functional, cell-based;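 also: parasite growth measured after 72 hours of compound exposure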
[8] = toxicity to human hepatoma HepG2 cells – cell-based, cherry-picked samples, cytotoxicity control, dose response (AID 1159577); format: functional
[9] = Trypanosoma cruzi growth suppression in host cells – NIH3T3 host cells, beta-gal luminescence, confirmation (AID 2044); format: functional, cell-based;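 also: intracellular parasites grown in NIH/3T3 mouse fibroblasts as host cells; luminescent beta-galactosidase reporter signal from transgenic T. cruzi replicating inside host cells; inhibitors lower the luminescence signal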
[10] = NIH3T3 cell viability loss – ATP luminescence, mouse fibroblasts, counter-screen, dose response (AID 2010); format: functional, cell-based;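 also: cells exposed to compound for about 90 hours before reading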
[11] = target: T2, Caspase-6 (Homo sapiens, UniProt P55212); experiment: inhibition of CASP6 peptide cleavage – biochemical, VEID-R110 fluorescence, cherry-pick, dose response (AID 720632)
T2 sequence (P55212 whole entry): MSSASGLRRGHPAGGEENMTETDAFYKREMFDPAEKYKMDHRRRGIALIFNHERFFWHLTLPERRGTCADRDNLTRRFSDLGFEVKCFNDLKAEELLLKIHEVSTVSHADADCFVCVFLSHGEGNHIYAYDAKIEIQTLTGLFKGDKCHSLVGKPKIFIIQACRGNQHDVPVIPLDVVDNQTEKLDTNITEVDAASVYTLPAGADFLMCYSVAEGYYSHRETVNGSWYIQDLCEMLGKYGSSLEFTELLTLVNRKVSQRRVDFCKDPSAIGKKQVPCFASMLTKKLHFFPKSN

[12] = viability loss in THP-1 monocytes – THP-1 cells, cytotoxicity control for Vif-APOBEC3G degradation inhibitor project, dose response (AID 1117359); format: functional; conditions: THP-1
[13] = target: Heat shock protein HSP 90-alpha (Homo sapiens, UniProt P07900); format: functional, organism-based

C[C@H]1CN([C@@H](C)CO)C(=O)c2cccc(NC(=O)c3ccncc3)c2O[C@@H]1CN(C)Cc1cc(Cl)ccc1Cl
AC50 [1]: 0.0573 µM (active)

CC(C)(C)[S+]([O-])N1Cc2cc(C(=O)NCc3ccc4c(c3)OCO4)nc(-c3cccc(C#CCC4CCCC4)c3)c2[C@@H]1CCO (some centres not stated)
AC50 [2]: 3.54 µM (active)
AC50 [1]: 0.883 µM (active)

C=CCN1C(=O)[C@@H](CC(=O)N2CCSCC2)[C@]2(C(=O)OC)CCCCC=C12
EC50 [3]: > 67.5 µM (inactive)

OC[C@H]1[C@H](c2ccc(Br)cc2)[C@@H]2CN(Cc3ccccn3)CCCCN12
AC50 [1]: 3.71 µM (active)

COc1ccc(CN2C[C@H](C)[C@@H](OC)CN(C)C(=O)c3ccc(NC(=O)c4nc5ccccc5s4)cc3OC[C@@H]2C)cc1
AC50 [4]: 3.82 µM (active)
AC50 [2]: 2.9 µM (active)
AC50 [5]: 67.3 µM (active)
AC50 [6]: 2.64 µM (active)
AC50 [7]: 5.03 µM (active)

C[C@H]1CN([C@@H](C)CO)C(=O)c2c(c3ccccc3n2C)-c2ccccc2CO[C@@H]1CN(C)Cc1ccc(Cl)c(Cl)c1
AC50 [4]: 1.87 µM (active)
AC50 [2]: 1.94 µM (active)
AC50 [5]: 18.4 µM (active)
AC50 [6]: 1.43 µM (active)
AC50 [7]: 3.11 µM (active)

c1ccc(CN2C[C@@H]3N[C@H](C2)[C@@H]3c2ccc(-c3ccncc3)cc2)cc1
AC50 [4]: 1.66 µM (active)
AC50 [2]: 2.35 µM (active)
AC50 [8]: > 39 µM (inactive)
AC50 [5]: 18 µM (active)
AC50 [6]: 1.54 µM (active)
AC50 [7]: 3.96 µM (active)

O=[N+]([O-])c1cc(CN2CCN(c3cccc(C(F)(F)F)c3)CC2)c2cccnc2c1O
EC50 [9]: 0.493 µM (active)
EC50 [10]: 4.99 µM (active)
AC50 [11]: 33.8 µM (active)
CC50 [12]: 2.18 µM (active)
AC50 [13]: 3.53 µM (active)

Cc1cc2ncc(-c3ccccc3)nc2cc1C [AG1295]
EC50 [3]: > 67.5 µM (inactive)
